In paper PMC12567098, “Multi-Kinase Inhibition by New Quinazoline–Isatin Hybrids: Design, Synthesis, Biological Evaluation and Mechanistic Studies” (Pharmaceuticals, 2025):

What was measured:
WI38 = test: MTT cytotoxicity assay, normal fibroblast WI38; format: cell-based; details: Homo sapiens, WI-38, 48 h, normal fibroblast cell line WI38
Text: (§1) Doxorubicin and sunitinib were used as positive controls for comparison.
(§2) The MTT assay is widely used to measure cell proliferation, cell viability, and cytotoxicity. It is based on reducing MTT dye into formazan crystals by living cells, determining mitochondrial activity.
(§3) 3.4. Biological Screening
(§4) Four cancer celllines; Hepatocellular carcinoma (HepG2), Breast adenocarcinoma (MCF-7), Breast adenocarcinoma […]
(§5) from American Type Culture Collection (ATCC, USA) via Holding company for biological products and vaccines (VACSERA), Cairo, Egypt. Antibiotic solutions and sterilesolutions were purchased from Sigma-Aldrich.
(§6) 3.4.2. Cytotoxicity Assay […]
(§7) dimethylthiazol-2-yl)-2,5-diphenyltetrazolium bromide) assay.[41–43] MTT assay is widely used to measure cell proliferation, cell viability, and cytotoxicity. It is based on reducing MTT dye into formazan crystals by living cells, determining mitochondrial activity.[44] For the assay, cells were seeded in Dulbecco’s modified minimum essential medium (DMEM) at a density of 1.0× 10^4 cells/well in 96-well plates, supplemented with 10% FBS and 5% CO2 at 37 °C for 24 h. To each well, a test compound was added at different concentrations .Each concentration was examined three times. Then the cells were treated with the compounds at 37 °C under 5 % CO2 for 48 h. Following this, MTT dye was added to each well at a final concentration of 0.5 mg/ml. Cells were treated with this tetrazolium dye for 4 h. Next, […]
(§8) dissolved by adding 100 µl dimethyl sulfoxide (DMSO), and the absorbance in each well was recorded at 570 nm in a […]
(§9) Absorbance at 570nm directly correlates with cell viability. IC50 (μM) values were determined using Graph Pad Prism software version 5 (Graph Pad Software Inc, CA). The cells were also treated with Doxorubicin; a standard anticancer drug used as positive control.

MDA-MB-231 = test: MTT cytotoxicity assay, MDA-MB-231; format: cell-based; details: Homo sapiens, 48 h
Description: (§10) The synthesized isatin–quinazoline compounds (6a–d) were assessed for their cytotoxicity against four cancer cell lines, namely, hepatocellular carcinoma HepG2, breast carcinoma MCF-7, breast adenocarcinoma MDA-MB-231, and cervical carcinoma HeLa, using an MTT colorimetric assay. Doxorubicin and sunitinib were used as positive controls for comparison. The antiproliferative activities are expressed as the median growth inhibitory concentration (IC50) in micromolar range and are described in Table 1.
(§11) Cytotoxicity of the synthesized compounds 6a–d was assessed by performing a colorimetric MTT (3-(4,5-dimethylthiazol-2-yl)-2,5-diphenyltetrazolium bromide) assay. The MTT assay is widely used to measure cell proliferation, cell viability, and cytotoxicity. It is based on reducing MTT dye into formazan crystals by living cells, determining mitochondrial activity.
as §3
(§12) Four cancer celllines; Hepatocellular carcinoma (HepG2), Breast adenocarcinoma (MCF-7), Breast adenocarcinoma (MDA-MB-231), and Cervical carcinoma (HeLa) and normal fibroblast cell line (WI38) used in this study were obtained from American Type Culture Collection (ATCC, USA) via Holding company for biological products and vaccines (VACSERA), Cairo, Egypt. Antibiotic solutions and sterilesolutions were purchased from Sigma-Aldrich.
(§13) 3.4.2. Cytotoxicity Assay
(§14) Cytotoxicity of the synthesized compounds 6a-d was done by performing a colorimetric MTT ( 3-(4,5-dimethylthiazol-2-yl)-2,5-diphenyltetrazolium bromide) assay.[41–43] MTT assay is widely used to measure cell proliferation, cell viability, and cytotoxicity. It is based on reducing MTT dye into formazan crystals by living cells, determining mitochondrial activity.[44] For the assay, cells were seeded in Dulbecco’s modified minimum essential medium (DMEM) at a density of 1.0× 10^4 cells/well in 96-well plates, supplemented with 10% FBS and 5% CO2 at 37 °C for 24 h. To each well, a test compound was added at different concentrations .Each concentration was examined three times. Then the cells were treated with the compounds at 37 °C under 5 % CO2 for 48 h. Following this, MTT dye was added to each well at a final concentration of 0.5 mg/ml. Cells were treated with this tetrazolium dye for 4 h. Next, purple crystals of formazan were noticed in each well, formed as a metabolic product of MTT. These crystals were dissolved by adding 100 µl dimethyl sulfoxide (DMSO), and the absorbance in each well was recorded at 570 nm in a microplate reader (EXL 800, USA). Absorbance at 570nm directly correlates with cell viability. IC50 (μM) values were determined using Graph Pad Prism software version 5 (Graph Pad Software Inc, CA). The cells were also treated with Doxorubicin; a standard anticancer drug used as positive control.

HeLa = test: MTT cytotoxicity assay, HeLa; format: cell-based; details: Homo sapiens, 48 h
Text: as §1, §2, §3, §4, §5, §6, §7, §8, §9

HepG2 = test: MTT cytotoxicity assay, HepG2; format: cell-based; details: Homo sapiens, 48 h
Description: as §10, §11, §3, §12, §13, §14

MCF-7 = test: MTT cytotoxicity assay, MCF-7; format: cell-based; details: Homo sapiens, MCF7, 48 h
Text: as §1, §2, §3, §4, §5, §6, §7, §8, §9

Bcl-2 = test: RT-qPCR gene expression analysis, Bcl-2; format: cell-based; details: HepG2, RT-qPCR, fold vs untreated = 1
Text: (§15) One significant anticancer mechanism is apoptosis. Drugs that induce apoptosis cause simultaneous or subsequent activation of death receptor systems, mitochondrial dysfunction, and caspase proteolytic processing. Thus, the cell death pathway may occur in several locations. In this study, the alteration in Bax, Bcl-2, and caspase-3 and 9 gene expression following the stimulation of apoptosis by 6c in HepG2 cells using the RT-qPCR method and staurosporine as a positive control is reported in Table 4.
(§16) 3.4.5. Gene Expression Analysis
(§17) After the RNA extraction,
(§18) reverse transcriptase enzyme.
(§19) The amplification reactions
(§20) The data were analyzed using a […]

HepG2 cells [1] = test: Propidium iodide flow cytometry cell cycle analysis; format: cell-based; details: HepG2, 2.6 μM, 24 h
Description: Its impacts on cell cycle progression and induction of apoptosis were investigated. The effect of compound 6c on the regulation of the cell cycle progression was studied using a Propidium Iodide Flow Cytometry Kit assay. Alterations in the cell cycle were recorded after the treatment of HepG2 cells with 2.6 μM of compounds 6c, chosen for its excellent antiproliferative activities within 24 h.
Cell cycle arrest and distribution were evaluated using a Propidium Iodide Flow Cytometry Kit (ab139418, Abcam, Cambridge, MA, USA) followed by flow cytometry analysis.
3.4.3. Flow cytometry cell cycle analysis
Cell cycle arrest and distribution were evaluated using the Propidium Iodide Flow Cytometry Kit (ab139418, Abcam) followed by flow cytometry analysis.[45,46] First, HepG2 cells were cultured at a density of 2 × 10^5/well for 24 h in the presence of tested newly synthesized compounds 6c (2.6 μM) (control cells were left untreated and both measurements were done in triplicate). Then, the attached cells were supplemented with trypsin, washed with ice-cold PBS, centrifuged, and fixed using ice -cold 70% ethanol. Next, cells were re -suspended and stored at +4 °C for at least 2 h. After that, cells were incubated with 200 μL 1X Propidium Iodide (PI) + RNase Staining Solution for 30 min at 37 °C in the dark. The DNA content in each cell nucleus was determined by Epics XL -MCL™ flow cytometer (Beckman -Coulter, USA). Finally, cell cycle phase distribution was analyzed using Flowing software 2.5.1 (Turku Centre for Biotechnology, University of Turku, Turku, Finland). […]
University of Turku, Turku, Finland).

VEGFR-2 = biological target: T1, VEGFR-2 (Homo sapiens, UniProt P35968); test: In vitro VEGFR-2 kinase inhibitory assay (BPS kit, Kinase-Glo); format: biochemical; details: 40 min at 30 °C
T1 construct: purchased BPS Biosciences, San Diego, CA, USA
T1 sequence (P35968 20-1356): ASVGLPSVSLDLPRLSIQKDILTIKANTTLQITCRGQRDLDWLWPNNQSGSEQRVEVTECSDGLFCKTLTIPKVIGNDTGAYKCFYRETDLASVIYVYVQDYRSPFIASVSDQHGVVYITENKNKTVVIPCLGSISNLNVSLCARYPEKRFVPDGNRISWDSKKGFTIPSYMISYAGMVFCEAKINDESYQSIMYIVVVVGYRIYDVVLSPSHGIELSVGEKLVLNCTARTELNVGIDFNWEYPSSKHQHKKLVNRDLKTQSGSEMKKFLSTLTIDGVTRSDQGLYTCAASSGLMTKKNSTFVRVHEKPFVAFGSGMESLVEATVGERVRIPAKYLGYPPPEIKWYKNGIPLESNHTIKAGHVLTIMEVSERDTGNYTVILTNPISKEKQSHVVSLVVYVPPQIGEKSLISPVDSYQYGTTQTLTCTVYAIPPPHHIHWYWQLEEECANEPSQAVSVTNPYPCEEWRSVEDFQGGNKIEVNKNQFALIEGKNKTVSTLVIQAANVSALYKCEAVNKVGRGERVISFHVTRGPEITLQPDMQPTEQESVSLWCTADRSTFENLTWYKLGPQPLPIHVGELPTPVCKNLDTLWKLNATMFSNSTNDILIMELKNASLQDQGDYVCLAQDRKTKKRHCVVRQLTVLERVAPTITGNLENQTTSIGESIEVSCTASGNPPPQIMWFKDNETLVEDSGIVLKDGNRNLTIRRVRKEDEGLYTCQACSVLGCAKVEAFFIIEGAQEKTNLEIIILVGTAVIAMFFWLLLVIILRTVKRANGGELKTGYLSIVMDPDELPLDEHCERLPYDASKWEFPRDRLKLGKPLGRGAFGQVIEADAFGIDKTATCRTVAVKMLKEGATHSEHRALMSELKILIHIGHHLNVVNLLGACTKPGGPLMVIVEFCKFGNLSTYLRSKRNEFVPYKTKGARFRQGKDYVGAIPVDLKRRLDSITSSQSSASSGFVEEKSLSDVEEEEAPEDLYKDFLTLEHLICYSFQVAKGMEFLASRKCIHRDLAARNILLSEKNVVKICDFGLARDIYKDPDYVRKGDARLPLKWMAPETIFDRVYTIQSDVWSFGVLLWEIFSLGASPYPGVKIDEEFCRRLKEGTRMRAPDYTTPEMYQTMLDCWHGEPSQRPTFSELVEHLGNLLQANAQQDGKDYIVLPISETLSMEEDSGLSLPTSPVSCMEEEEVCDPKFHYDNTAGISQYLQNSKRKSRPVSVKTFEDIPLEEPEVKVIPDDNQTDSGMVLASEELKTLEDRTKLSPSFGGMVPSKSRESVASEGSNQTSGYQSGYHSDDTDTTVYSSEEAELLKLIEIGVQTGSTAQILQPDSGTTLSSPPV

CDK2 = biological target: T2, CDK2 (Homo sapiens, UniProt P24941); test: In vitro CDK2 kinase inhibitory assay (BPS kit, Kinase-Glo); format: biochemical; details: 40 min at 30 °C
T2 construct: purchased BPS Biosciences, San Diego, CA, USA

Caspase-9 = test: RT-qPCR gene expression analysis, caspase-9; format: cell-based; details: HepG2, RT-qPCR, fold vs untreated = 1
Text: as §15, §16, §17, §18, §19, §20

Caspase-3 = test: RT-qPCR gene expression analysis, caspase-3; format: cell-based; details: HepG2, RT-qPCR, fold vs untreated = 1
Text: as §15, §16, §17, §18, §19, §20

Bax = test: RT-qPCR gene expression analysis, Bax; format: cell-based; details: HepG2, RT-qPCR, fold vs untreated = 1
Text: as §15, §16, §17, §18, §19, §20

EGFR = EGFR (Homo sapiens, UniProt P00533); test: In vitro EGFR kinase inhibitory assay (BPS kit, Kinase-Glo)
EGFR, sequence (P00533 25-1210): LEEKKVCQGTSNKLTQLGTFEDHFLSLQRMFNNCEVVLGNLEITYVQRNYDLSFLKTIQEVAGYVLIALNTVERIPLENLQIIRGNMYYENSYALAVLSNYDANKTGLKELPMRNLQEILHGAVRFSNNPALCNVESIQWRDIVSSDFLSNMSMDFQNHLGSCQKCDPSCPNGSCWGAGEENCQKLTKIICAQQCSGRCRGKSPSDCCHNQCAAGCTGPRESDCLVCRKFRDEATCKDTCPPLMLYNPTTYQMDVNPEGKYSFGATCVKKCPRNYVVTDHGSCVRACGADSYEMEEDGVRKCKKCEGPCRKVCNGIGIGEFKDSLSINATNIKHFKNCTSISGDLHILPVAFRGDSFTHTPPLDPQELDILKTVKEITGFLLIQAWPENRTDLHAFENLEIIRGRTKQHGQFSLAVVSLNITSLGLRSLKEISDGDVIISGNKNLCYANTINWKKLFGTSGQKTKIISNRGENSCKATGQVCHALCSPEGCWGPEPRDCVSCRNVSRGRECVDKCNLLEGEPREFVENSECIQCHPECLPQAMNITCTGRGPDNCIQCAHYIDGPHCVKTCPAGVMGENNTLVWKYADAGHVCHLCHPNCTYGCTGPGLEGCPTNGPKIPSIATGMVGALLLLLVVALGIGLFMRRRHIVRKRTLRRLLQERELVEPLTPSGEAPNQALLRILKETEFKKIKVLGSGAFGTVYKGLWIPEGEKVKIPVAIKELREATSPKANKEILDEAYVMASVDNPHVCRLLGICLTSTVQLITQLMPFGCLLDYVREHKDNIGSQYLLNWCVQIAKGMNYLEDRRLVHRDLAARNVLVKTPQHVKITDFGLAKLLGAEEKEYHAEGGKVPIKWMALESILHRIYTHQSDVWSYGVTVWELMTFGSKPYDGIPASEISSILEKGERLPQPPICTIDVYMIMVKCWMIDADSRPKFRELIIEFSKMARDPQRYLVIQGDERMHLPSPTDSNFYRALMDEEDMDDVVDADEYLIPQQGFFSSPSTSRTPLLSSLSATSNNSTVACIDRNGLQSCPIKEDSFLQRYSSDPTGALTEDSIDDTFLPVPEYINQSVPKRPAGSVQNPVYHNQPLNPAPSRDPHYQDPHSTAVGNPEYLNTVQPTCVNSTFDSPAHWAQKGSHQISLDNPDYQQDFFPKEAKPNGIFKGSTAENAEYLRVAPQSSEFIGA
Description: (§21) In vitro CDK2, EGFR, VEGFR -2, and HER2 Inhibitory Assays
(§22) using CDK2, EGFR, VEGFR -2, and HER2 Kinase Assay Kit (BPS Biosciences, San Diego, CA).[50] At first, CDK2, EGFR,
(§23) initi-ate the catalytic function of the enzymes. Detection reagent (Kinase-Glo® Max reagent) was the added to stop
(§24) the reaction, followed by incubation at room temperature for 15 min. Then the IC50 values were calculated by
(§25) measuring luminescence signal at 450 nm using a plate reader (Tecan Spark® 10M, Männedorf, Switzerland). All
(§26) assays were carried out based on protocol from manufacture. All samples and controls were tested in duplicate.

HER2 = HER2 (Homo sapiens, UniProt P04626); test: In vitro HER2 kinase inhibitory assay (BPS kit, Kinase-Glo); details: read-out: IC50 HER2, 40 min at 30 °C
HER2, sequence (P04626 23-1255): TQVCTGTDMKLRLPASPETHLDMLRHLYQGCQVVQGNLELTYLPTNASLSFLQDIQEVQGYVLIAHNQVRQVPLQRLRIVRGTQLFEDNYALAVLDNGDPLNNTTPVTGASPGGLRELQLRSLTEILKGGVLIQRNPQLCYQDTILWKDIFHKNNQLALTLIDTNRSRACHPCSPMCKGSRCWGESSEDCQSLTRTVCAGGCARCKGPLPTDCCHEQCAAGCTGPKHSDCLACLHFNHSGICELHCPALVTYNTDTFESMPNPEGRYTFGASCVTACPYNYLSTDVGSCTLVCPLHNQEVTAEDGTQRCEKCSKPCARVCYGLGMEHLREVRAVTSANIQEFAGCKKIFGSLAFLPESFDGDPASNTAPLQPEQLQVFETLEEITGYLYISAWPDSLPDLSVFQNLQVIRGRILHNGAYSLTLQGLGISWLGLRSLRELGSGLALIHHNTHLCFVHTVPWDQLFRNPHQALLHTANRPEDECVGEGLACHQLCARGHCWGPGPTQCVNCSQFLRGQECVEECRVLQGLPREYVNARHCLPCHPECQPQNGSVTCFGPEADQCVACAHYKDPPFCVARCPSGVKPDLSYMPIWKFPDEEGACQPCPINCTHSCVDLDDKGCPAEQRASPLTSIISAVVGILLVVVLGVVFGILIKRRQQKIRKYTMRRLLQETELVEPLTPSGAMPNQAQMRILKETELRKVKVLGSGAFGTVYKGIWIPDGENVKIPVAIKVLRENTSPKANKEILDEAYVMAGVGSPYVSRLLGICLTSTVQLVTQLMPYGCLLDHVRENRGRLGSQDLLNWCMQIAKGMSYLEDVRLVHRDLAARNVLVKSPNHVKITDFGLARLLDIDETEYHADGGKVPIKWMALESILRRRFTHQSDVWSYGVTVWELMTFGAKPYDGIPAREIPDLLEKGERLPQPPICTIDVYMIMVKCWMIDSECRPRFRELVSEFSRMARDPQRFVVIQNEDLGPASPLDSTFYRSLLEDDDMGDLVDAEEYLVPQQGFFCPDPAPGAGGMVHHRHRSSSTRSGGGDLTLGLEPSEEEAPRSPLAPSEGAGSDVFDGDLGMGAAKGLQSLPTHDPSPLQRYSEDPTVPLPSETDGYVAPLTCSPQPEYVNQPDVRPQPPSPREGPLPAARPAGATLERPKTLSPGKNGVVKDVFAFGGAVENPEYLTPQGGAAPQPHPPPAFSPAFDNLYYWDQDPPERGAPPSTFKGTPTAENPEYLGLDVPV
Description: as §21, §22, §23, §24, §25, §26

HepG2 cells [2] = test: Annexin V-FITC/PI dual-staining apoptosis assay; format: cell-based; details: HepG2, 2.6 μM (IC50), 24 h
Description: Apoptosis can be detected by measuring translocated phosphatidylserine (PS) from the interior to the surface of the cell membrane. Therefore, an annexin V-FITC/PI (fluorescein–isothiocyanate/propidium iodide) dual staining flow cytometric assay was carried out for compound 6c to investigate the mechanism of cell death induced by the assessed compound.
The apoptosis assay was performed with an annexin V-FITC/PI double staining apoptosis detection kit (K101, BioVision Inc., Mountain View, CA, USA) using a flow cytometer. Experimental procedures are described in detail in theSupplementary Information. […]
3.4.4. Annexin V-FITC Dual-Staining Apoptosis Assay
Apoptosis assay was performed with an Annexin V-FITC / PI double staining apoptosis detection kit (K101, BioVision Inc, Mountain View, CA, USA) using a flow cytometer.[47,48] […]
concentration (2.6 μM) for 24 h. After treatment, the cells were collected, washed two times with PBS, and resuspended in 500 µL binding buffer. Next, annexin V-FITC (5 µL ) and propidium iodide (PI) 5 µL were intruduced to the suspension and the cells were left in the dark for 15 min at room temperature. Samples were then recorded by Epics XL-MCL™ flow cytometer (Beckman- Coulter, USA) and Flowing software (Turku Centre for Biotechnology, University of Turku, Turku, Finland).

Compound | IC50 (WI38) | IC50 (MDA-MB-231) | IC50 (HeLa) | IC50 (HepG2) | IC50 (MCF-7) | further results
O=C1Nc2ccccc2/C1=N/NC(=O)c1ccc(Nc2ncnc3ccccc23)cc1 [Compound 6a, (Z)-N′-(2-Oxoindolin-3-ylidene)-4-(quinazolin-4-ylamino) benzohydrazide] | 34.1 ± 2.6 µM | 6.24 ± 0.5 µM | 13.1 ± 0.9 µM | 7.98 ± 0.6 µM | 4.89 ± 0.3 µM | –
O=C1Nc2ccc(Cl)cc2/C1=N/NC(=O)c1ccc(Nc2ncnc3ccccc23)cc1 [Compound 6b, (Z)-N′-(5-Chloro-2-oxoindolin-3-ylidene)-4-(quinazolin-4-ylamino)benzohydrazide] | > 100 µM | 56.3 ± 3.2 µM | 66.8 ± 3.4 µM | 61.4 ± 3.5 µM | 70.7 ± 3.4 µM | –
O=C1Nc2ccc(F)cc2/C1=N/NC(=O)c1ccc(Nc2ncnc3ccccc23)cc1 [Compound 6c, (Z)-N′-(5-Fluoro-2-oxoindolin-3-ylidene)-4-(quinazolin-4-ylamino)benzohydrazide] | 57.3 ± 3.3 µM | 5.18 ± 0.4 µM | 7.6 ± 0.5 µM | 2.61 ± 0.1 µM | 3.78 ± 0.2 µM | Protein Expression (Normalized to β-Actin) Bcl-2 (Bcl-2): 0.185; Cell Cycle Distribution (%) % Sub-G1 (HepG2 cells [1]): 42.79%; Cell Cycle Distribution (%) %G0–G1 (HepG2 cells [1]): 36.47%; Cell Cycle Distribution (%) %G2/M (HepG2 cells [1]): 9.92%; Cell Cycle Distribution (%) %S (HepG2 cells [1]): 53.61%; IC50 (VEGFR-2): 0.076 ± 0.004 µM; IC50 (CDK2): 0.183 ± 0.01 µM; Protein Expression (Normalized to β-Actin) Caspase-9 (Caspase-9): 2.795; Protein Expression (Normalized to β-Actin) Caspase-3 (Caspase-3): 10.13; Protein Expression (Normalized to β-Actin) Bax (Bax): 4.585; IC50 (EGFR): 0.083 ± 0.005 µM; IC50 (HER2): 0.138 ± 0.07 µM; Necrosis (HepG2 cells [2]): 2.94; Apoptosis Induction Analysis Early (HepG2 cells [2]; in % (unit assumed)): 28.64; Apoptosis Induction Analysis Late (HepG2 cells [2]; in % (unit assumed)): 11.21; Apoptosis Induction Analysis Total (HepG2 cells [2]; in % (unit assumed)): 42.79
Cc1ccc2c(c1)/C(=N/NC(=O)c1ccc(Nc3ncnc4ccccc34)cc1)C(=O)N2 [Compound 6d, (Z)-N′-(5-Methyl-2-oxoindolin-3-ylidene)-4-(quinazolin-4-ylamino)benzohydrazide] | 65.8 ± 3.8 µM | 82.7 ± 4.3 µM | > 100 µM | 87.4 ± 4.5 µM | > 100 µM | –
COc1cccc2c1C(=O)c1c(O)c3c(c(O)c1C2=O)C[C@@](O)(C(=O)CO)C[C@@H]3O[C@H]1C[C@H](N)[C@H](O)[C@H](C)O1 [Doxorubicin, reference compound] | – | – | – | 4.5 ± 0.2 µM | – | –
CN[C@@H]1C[C@H]2O[C@@](C)([C@@H]1OC)n1c3ccccc3c3c4c(c5c6ccccc6n2c5c31)C(=O)NC4 [Staurosporine, reference compound] | – | – | – | – | – | Protein Expression (Normalized to β-Actin) Bcl-2 (Bcl-2): 0.351; Protein Expression (Normalized to β-Actin) Caspase-9 (Caspase-9): 4.614; Protein Expression (Normalized to β-Actin) Caspase-3 (Caspase-3): 8.43; Protein Expression (Normalized to β-Actin) Bax (Bax): 6.794
CCN(CC)CCNC(=O)c1c(C)[nH]c(/C=C2\C(=O)Nc3ccc(F)cc32)c1C [Sunitinib, reference compound] | 43 ± 2.9 µM | 8.41 ± 0.7 µM | 7.48 ± 0.6 µM | 6.82 ± 0.5 µM | 5.19 ± 0.4 µM | –
